Source: paper PMC7876106 (Scientific Reports, 2021)
pIC50: −log10 of the molar value.

Tests used:
[1] = test system: TERRA (unlabelled) (RNA, G4) UUAGGGUUAGGGUUAGGGUUAGGG; experiment: fluorescence polarization, displacement of TRF2 GAR peptide; conditions: 150 mM KCl, NaCl or LiCl (salt not specified); 20 mM HEPES; 20 mM HEPES pH 7.5, room temperature; FITC-TRF2 GAR peptide 10 nM displaced; 5 μM oligo
[2] = test system: TERRA; experiment: CD spectroscopy of TERRA mixed with compound; conditions: 1:1 molar ratio, 150 mM KCl buffer
Procedure: All nucleic acids were dissolved in buffer containing 20 mM HEPES pH7.5, 150 mM salt (KCl or LiCl), 20% PEG8000 at the concentration of 10 μM for experiments. A J-815 spectrometer equipped with a PFD-425S Peltier cell holder was used to measure CD spectra at 4 °C between 200 and 340 nm to determine the secondary structure content of various oligo constructs. The molar ellipticity was calculated and the plot was made using Excel.

[3] = test system: LOX cells; experiment: TIF assay (IF FISH, γH2AX or 53BP1 with telomere DNA) in LOX cells; type: cell-based, human; conditions: 2 μM, 3 days
Procedure: Mei et al, 2020 TERRA Requires TRF2 GAR Domain […]
Indirect immunofluorescence (IF) combined with fluorescence in situ hybridization (FISH) analysis for telomere dysfunction was performed as described 4 with some modifications. Briefly, cells grown on coverslips were fixed for 15 min in 2% paraformaldehyde/1x PBS at RT, followed by permeabilization for 10 min in 1x PBS/0.5% Triton X-100 at RT. After washing with 1x PBS, cells were incubated for 60 min in blocking solution (0.5% BSA, 0.2% fish gelatin, 0.1% Triton X-100, 1 mM EDTA in 1x PBS) before immuno-staining. Primary antibodies were prepared in blocking solution at following dilutions: anti-53BP1 (1:500, IHC-00001; Bethyl Laboratories) and γH2AX (1:2,000, A300-081A; Bethyl Laboratories). After IF, cells were fixed in 4% paraformaldehyde in 1x PBS for 10 min, washed in 1x PBS, dehydrated in ethanol series (70%, 95%, 100%), and air-dried. Coverslips were denatured for 5 min at 80-85° C in hybridization mix [70% formamide, 10 mM Tris-HCl, pH 7.2, and 0.5% blocking solution (Roche)] containing telomeric PNA-Cy3-(CCCTAA)3 probe, and hybridization was continued for 2 hrs at room temperature in the dark moisturized chambers. Coverslips were washed twice for 15 min each with 70% formamide, 10 mM Tris-HCl (pH 7.2), and 0.1% BSA, and followed by three washes for 5 min each with 0.15 M NaCl, 0.1 M Tris-HCl (pH 7.2), and 0.08% Tween-20. Nuclei were counterstained with 0.1 µg/ml DAPI in blocking solution and coverslips mounted with VectorShield (Vector Laboratories). RNA FISH was performed as previously described 1.
Images were captured with a 100x lens on a Nikon E600 Upright microscope (Nikon […]
Instruments, Inc., Melville, NY) with ImagePro Plus software (Media Cybernetics, Silver Spring, MD) for image processing. Cells with > 5 53BP1/γH2AX foci co-localizing with telomere DNA foci were scored as positive for TIF. The quantification was generated from at least three independent Immuno-FISH experiments. […]
0.1 μg/mL DAPI in 1x PBS and slides were mounted with VectorShield (Vector Laboratories).
Images were taken with a 100x lens on a Nikon E600 Upright microscope (Nikon Instruments) using ImagePro Plus software (Media Cybernetics) for image processing. Statistical analysis was performed using two-tailed Student t Test.

[4] = test system: LOX cells; experiment: Metaphase telomere FISH in LOX cells; type: cell-based, human; conditions: 2 μM, 3 days
Procedure: Mei et al, 2020 TERRA Requires TRF2 GAR Domain
Instruments, Inc., Melville, NY) with ImagePro Plus software (Media Cybernetics, Silver Spring, MD) for image processing. Cells with > 5 53BP1/γH2AX foci co-localizing with telomere DNA foci were scored as positive for TIF. The quantification was generated from at least three independent Immuno-FISH experiments.
FISH analysis on metaphase spreads was performed as previously described 5. Briefly, LOX cells were treated with indicated chemicals (2 µM) for 3 days in a 37 °C CO2 incubator. LOX TRF2∆B cells were cultured in the absence (-) or presence (+) of 1 µg/ml doxycycline for 20 days in 37 °C incubator. Colcemid (0.1 mg/ml; GIBCO) was then added to cells and incubated for 4 hrs to accumulate mitotic cells. Cells were collected by trypsinization and suspended in 75 mM KCl hypotonic solution at 37 °C for 25 min before fixation in fresh 3:1 methanol/acetic acid for 4-5 times. Fixed cells were dropped onto cold, wet glass microscope slides and allowed to dry slowly in a humid environment. Metaphase chromosome spreads were fixed in 4% paraformaldehyde in 1x PBS for 3 min, dehydrated in ethanol series [70%, 95%,100% (vol/vol)], and air-dried. Slides were denatured for 5 min at 81 °C in hybridization mix [70% (vol/vol) formamide, 10 mM Tris·HCl (pH 7.2), and 0.5% blocking solution (Roche)] containing telomeric PNA-Cy3-(CCCTAA)3 probe (PNA Bio). […]

[5] = biological target: TERRA and TRF2 complex; experiment: FP inhibition assay, TRF2 GAR binding to TERRA; conditions: for pIC50: FP, 10 nM peptide, 5 μM oligo; for Selectivity Ratio IC50 (Tel DNA/TERRA): ratio of FP IC50 values
Procedure: All the nucleic acids, peptides and chemicals were dissolved in buffer containing 20 mM HEPES pH7.5, 150 mM salt (KCl, NaCl, LiCl) at the stock concentration of 1 mM. For peptide and nucleic acid interactions, 25μL of each nucleic acids with a sequential twofold dilutions starting from 50 μM was added into each well of 96-well plate followed by adding 25μL of 10 nM FITC labeled TRF2 peptide. For compounds and nucleic acid interactions, 20μL of each compounds with a sequential twofold dilutions starting from 50 μM were added into each well of 96-well plate followed by adding 5μL of 20 ng/mL tRNA and 25μL of 10 nM FAM labeled nucleic acids. For inhibition assay, 5μL FITC labeled TRF2 GAR peptide (10 nM final concentration) and 10 μL oligos (5 μM final concentration) were mixed, followed by adding 5μL of each compound with a sequential twofold dilutions starting from 50 μM into each well of 384-well plate. All components were mixed thoroughly, and the plate was incubated at room temperature for 1 h before placing in an Envision Plate Reader for reading at 495/520 nm. All data curves were fitted using Prism 8.0.

SMILES | IC50 [1] | alteration of CD spectrum of TERRA at major peak (~260 nm) [2] | increase in telomere-associated γH2AX compared to PP treatment [3] | level of γH2AX or 53BP1 associated telomere dysfunction-induced foci (TIFs) [3] | frequency of telomere aberrations incl. fragile telomere doublets [4] | pIC50 [5] | Selectivity Ratio IC50 (Tel DNA/TERRA) [5]
CN(C)c1ccc(Nc2c3ccc(NC(=O)CCN4CCCC4)cc3nc3cc(NC(=O)CCN4CCCC4)ccc23)cc1 [BRACO-19] | 240 nM | not BRACO-19 or PP altered the CD spectrum | ~ three fold increase | moderate level | increased the frequency of telomere aberrations | 6.62 | 0.17
CCc1c(C)c2cc3nc(cc4nc(cc5c(CC)c(C)c(cc1[nH]2)n5C)C(C)=C4CCC(=O)O)C(CCC(=O)O)=C3C [NMM, N-methyl mesoporphyrin IX] | 420 nM | altered the CD spectrum of TERRA | ~ fivefold increase | high level | increased the frequency of telomere aberrations | 6.38 | 2.38
